# Measurements published in article PMC10221159, “Investigation of N-Acetyltransferase 2-Mediated Drug Interactions of Amifampridine: In Vitro and In Vivo Evidence of Drug Interactions with Acetaminophen” (Pharmaceutics, 2023).
# Values joined by “and” are separate entries in the source; they are usually repeats but may differ in a detail not shown here. Equal entries are not always repeated. Where two headings read alike, the source gives them in different places.
# Experiments:
# [1] = In vivo pharmacokinetic interaction study in rats (plasma); parameters: species or system rat; details: for AUC(0-inf) / AUC(0-t) / Cmax / MRT / Tmax / half-life / CL renal: male, Sprague-Dawley, rat; for AUC(0-inf) / AUC(0-t) / Cmax / MRT / Tmax / half-life: plasma; for CL renal: urine and plasma, renal clearance
# Protocol: Male Sprague Dawley (SD) rats (7–8 weeks old, 260–330 g) were purchased from Orient Bio, Inc. (Seongnam, Korea). The rats were housed under a light/dark cycle for 12 h and were left for at least a week before the experiment to adapt to the laboratory environment. Water and food were provided ad libitum. The rats were fasted overnight with free access to water prior to pharmacokinetic studies. The protocols for animal experiments were approved in accordance with the Guidelines for Animal Care and Use of Gachon University (approval no.: GIACUC-R2021006; 13 May 2021).
# The rats were anesthetized with a mixture of Rompun and Zoletil by intramuscular injection and received an intraperitoneal injection of vehicle (40:60 PEG400:normal saline; n = 8) or 100 mg/kg acetaminophen (n = 8). After 10 min, 2 mg/kg amifampridine (dissolved in saline) was administered orally. Blood samples were collected at 0, 5, 15, 30, 60, 90, 120, 240, and 360 min and centrifuged at 14,000 rpm for 15 min at 4 °C. For analysis of amifampridine and 3-N-acetylamifampridine, 50 μL of plasma samples was mixed with 100 μL IS solution (5 ng/mL ondansetron in acetonitrile) and the mixture was vortexed followed by centrifugation at 14,000 rpm for 15 min at 4 °C. For the analysis of acetaminophen, 200 μL of IS (tolbutamide 200 ng/mL in methanol) was added to the plasma samples which were diluted 10-fold using the blank plasma and then vortexed for one minute. Further, the samples were centrifuged at 14,000 rpm for 15 min at 4 °C. The supernatants were transferred to LC vials for quantification.
# Non-compartment analysis (NCA) was performed to calculate the pharmacokinetic parameters for the in vivo study using WinNonlin (Version 8.3. (Pharsight Corporation, Mountain View, CA, USA)). The area under the plasma concentration–time curve from time 0 to infinity (AUCinf) was calculated by the linear trapezoidal method and standard extrapolation using λ, where λ represents the slope of the terminal phase in a semi-log graph for plasma concentration–time profiles. Renal clearance (CLr) was determined by dividing the accumulated amount of drug excreted in the urine by AUCinf.
# [2] = Urinary excretion of amifampridine and 3-N-acetylamifampridine in rats; format: in vivo, rat; details: for amount excreted into the urine for up to 4 h: oral amifampridine 2 mg/kg
# Protocol: Urine samples were collected at intervals of 0–4, 4–8, and 8–24 h after the administration of amifampridine to control and acetaminophen-treated rats (n = 6), as described above, and were diluted 500-fold with potassium phosphate buffer. An amount of 200 μL of IS was then added to the samples and vortexed for a minute. After centrifugation at 14,000 rpm for 15 min at 4 °C, the supernatant was transferred into vials for quantification of amifampridine and 3-N-acetylamifampridine.
# [3] = Tissue distribution of amifampridine and 3-N-acetylamifampridine in rats; format: in vivo, rat; details: rat, 60 min after oral amifampridine 2 mg/kg
# Protocol: To investigate the effects of acetaminophen on the tissue distribution of amifampridine and 3-N-acetylamifampridine, rats were sacrificed at 60 min after administration of amifampridine in control and acetaminophen-treated rats (n = 6) as mentioned above, and the tissues, including liver, kidney, heart, lungs, spleen, brain, and muscle tissues, were obtained. Tissue samples were homogenized using a Wheaton^TM Dounce tissue grinder (Wheaton Millipore, Billerica, MA, USA) after adding a three-fold volume of PBS. An amount of 100 μL of tissue homogenates was transferred to the tube and 200 μL of IS solution was then added and vortexed followed by centrifugation at 14,000 rpm for 15 min at 4 °C. The supernatants were transferred to LC vials for quantification. For muscle samples, the supernatant was concentrated using a desiccator and reconstituted with the mobile phase solvent.
# [4] = humans, cited from earlier work
# [5] = parameters: method as in earlier work; details: metabolite of amifampridine; cited from earlier work
# [6] = target: T1, NAT2 (Homo sapiens, UniProt P11245); test: Inhibition of amifampridine acetylation to 3-N-acetylamifampridine by NAT2 inhibitors, human liver S9 fraction; format: biochemical; details: amifampridine 50 μM, 15 min
# T1 construct: in vitro using S9 fractions obtained from human, rat, and mouse livers; from tissue; host or cells: human liver S9 fraction
# T1 sequence (P11245 1-290): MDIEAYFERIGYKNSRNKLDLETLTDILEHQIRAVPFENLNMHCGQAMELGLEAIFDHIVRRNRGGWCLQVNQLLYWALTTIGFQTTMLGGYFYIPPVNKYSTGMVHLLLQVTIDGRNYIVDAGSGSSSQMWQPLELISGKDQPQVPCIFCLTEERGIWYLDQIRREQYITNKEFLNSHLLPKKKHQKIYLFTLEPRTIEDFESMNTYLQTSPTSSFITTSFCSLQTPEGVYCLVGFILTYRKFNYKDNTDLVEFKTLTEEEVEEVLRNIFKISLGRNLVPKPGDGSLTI
# [7] = target: T2, NAT2 (Rattus norvegicus, UniProt P50298); test: Inhibition of amifampridine acetylation to 3-N-acetylamifampridine by NAT2 inhibitors, rat liver S9 fraction; format: biochemical; details: rat vs human liver S9 fractions
# T2 sequence (P50298 1-290): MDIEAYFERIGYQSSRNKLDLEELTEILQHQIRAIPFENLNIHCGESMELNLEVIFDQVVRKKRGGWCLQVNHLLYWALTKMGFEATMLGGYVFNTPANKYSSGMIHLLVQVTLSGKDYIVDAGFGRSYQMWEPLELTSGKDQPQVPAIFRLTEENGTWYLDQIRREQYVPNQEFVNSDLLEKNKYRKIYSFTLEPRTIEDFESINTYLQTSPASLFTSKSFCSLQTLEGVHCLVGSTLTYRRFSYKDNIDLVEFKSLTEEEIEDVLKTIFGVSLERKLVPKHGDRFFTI
# Protocol: To determine the half maximal inhibitory concentration (IC50) value of NAT2 inhibitors (acetaminophen, apocynin, and cimetidine) on the metabolism of amifampridine to 3-N-acetylamifampridine, the reaction mixture consisted of a liver S9 fraction (2 mg/mL protein) and 2 mM acetyl-CoA in potassium phosphate buffer was pre-incubated for 5 min in a thermomixer at 37 °C. Then, the NAT2 inhibitors (final concentrations of 0, 1, 5, 10, 50, 100, 500, 1000, and 5000 μM) and amifampridine (final concentration of 50 μM) were added to the reaction mixture and incubated for 15 min at 37 °C. An amount of 50 μL of the mixture was then transferred into the tube and mixed with 100 μL of IS (5 ng/mL ondansetron in acetonitrile). The mixture was vortexed and centrifuged at 14,000 rpm for 15 min at 4 °C. The supernatant was transferred into vials for HPLC-MS/MS analysis and the concentration of 3-N-acetylamifampridine was determined.
# [8] = target: T2, NAT2; test: Reversible inhibition mode of acetaminophen on amifampridine metabolism, rat liver S9 fraction (Lineweaver–Burk, secondary plots); format: biochemical
# Protocol: To determine the inhibition mechanism of amifampridine metabolism by acetaminophen, various concentrations of amifampridine (40, 80, 160, and 320 μM) were incubated with the rat liver S9 fraction in the presence of different concentrations of acetaminophen (0, 10, 50, 100, and 500 μM). After pre-incubating the reaction mixture containing 2 mM acetyl-CoA for 5 min in a thermomixer at 37 °C, acetaminophen and amifampridine were added and further incubated for 15 min at 37 °C. The samples were diluted five-fold using potassium phosphate buffer, then 50 μL of the diluted samples was transferred into the tube containing 100 μL of IS (5 ng/mL ondansetron in acetonitrile). The mixture was vortexed and centrifuged at 14,000 rpm for 15 min at 4 °C. The supernatant was transferred into vials for HPLC-MS/MS analysis and the concentration of 3-N-acetylamifampridine was determined.
# The α value is the degree to which the binding of acetaminophen changes the affinity of the enzyme for amifampridine.
# [9] = target: T2, NAT2; test: Time-dependent inhibition of amifampridine metabolism by acetaminophen, rat liver S9 fraction; format: biochemical
# Protocol: To examine whether acetaminophen could inhibit the metabolic activity of amifampridine in a time-dependent manner, the experiment was conducted by using a high concentration of amifampridine (approximately four-fold Km value) for different pre-incubation times (0, 10, 30, and 60 min) in the presence of different concentrations of acetaminophen (0, 10, 50, 100, and 500 μM). The reaction mixture contained the liver S9 fraction (2 mg/mL protein) and 2 mM acetyl-CoA in potassium phosphate buffer. Then, acetaminophen was added and pre-incubated at different times in a thermomixer at 37 °C. The reaction was then initiated by adding amifampridine (240 μM as a final concentration) and vortex mixing followed by incubation at 37 °C for 15 min. After incubation, the 50 μL aliquot was transferred into a tube containing 200 μL of ice-cold potassium phosphate to dilute it five-fold. […]
# Kobs, the observed rate of enzyme loss, was estimated from the negative slopes of the lines using a linear regression analysis of the natural logarithm of metabolite formation as a function of incubation time. The first-order rate constant, Kinact, which represents the maximum rate of enzyme inactivation, was calculated using a nonlinear regression analysis as follows: Kobs=Kinact×I/Ki+I
# [10] = target: T1, NAT2; parameters: method as in PMID 26519524, PMID 9918139; details: sulfamethazine acetylation, cited from earlier work
# [11] = parameters: method as in PMID 21074742; details: humans, oral or intravenous administration; cited from earlier work
# [12] = po, 2 mg/kg, oral amifampridine 2 mg/kg, acetaminophen-treated group (100 mg/kg ip)
# [13] = po, 2 mg/kg, oral amifampridine 2 mg/kg, control group
compound,measurement,setting,value
CC(=O)Nc1cnccc1N [3-N-acetylamifampridine],change of AUCinf after pre-treatment with acetaminophen,[1]; acetaminophen-treated vs control rats,not significantly altered
same,decrease in Cmax,"[1]; after pre-treatment with acetaminophen vs control, p < 0.05",27.11%
same,decrease of AUCm/AUCp,[1]; after pretreatment with acetaminophen,65%
same,AUC(0-inf),[1]; [12],3690 ng·h/mL
same,AUC(0-t),[1]; [12],3010 ng·h/mL
same,Cmax,[1]; [12],880 ± 260 ng/mL
same,MRT,[1]; [12],3.84 h
same,Tmax,[1]; [12],1.5 h
same,half-life,[1]; [12],143 ± 54.6 min
same,AUC(0-inf),[1]; [13],3690 ng·h/mL
same,AUC(0-t),[1]; [13],3410 ng·h/mL
same,Cmax,[1]; [13],1210 ± 240 ng/mL
same,MRT,[1]; [13],2.65 h
same,Tmax,[1]; [13],1.31 h
same,half-life,[1]; [13],84.9 ± 21.6 min
same,CL renal,[1]; [12],3.58 ± 0.6 mL/min
same,CL renal,[1]; [13],2.94 ± 1.55 mL/min
same,"total amount excreted via urine for up to 24 h, difference between groups",[2]; control vs acetaminophen-treated rats,not significantly different
same,amount excreted into the urine for up to 4 h,[2]; after pre-treatment with acetaminophen,12.2%
same,amount excreted into the urine for up to 4 h,[2]; control rats,49.9%
same,Kp at 1 h,"[3]; Sprague Dawley, brain, acetaminophen 100 mg/kg, read-out: Tissue partition coefficient (Kp), Brain",0.2 ± 0.2
same,Kp at 1 h,"[3]; Sprague Dawley, brain, control, read-out: Tissue partition coefficient (Kp), Brain",0.2 ± 0.2
same,Kp at 1 h,"[3]; Sprague Dawley, heart, acetaminophen 100 mg/kg, read-out: Tissue partition coefficient (Kp), Heart",1.6 ± 0.4
same,Kp at 1 h,"[3]; Sprague Dawley, heart, control, read-out: Tissue partition coefficient (Kp), Heart",1.8 ± 0.5
same,Kp at 1 h,"[3]; Sprague Dawley, lungs, acetaminophen 100 mg/kg, read-out: Tissue partition coefficient (Kp), Lungs",2.7 ± 0.9
same,Kp at 1 h,"[3]; Sprague Dawley, lungs, control, read-out: Tissue partition coefficient (Kp), Lungs",2.9 ± 0.5
same,Kp at 1 h,"[3]; Sprague Dawley, spleen, acetaminophen 100 mg/kg, read-out: Tissue partition coefficient (Kp), Spleen",3 ± 0.9
same,Kp at 1 h,"[3]; Sprague Dawley, spleen, control, read-out: Tissue partition coefficient (Kp), Spleen",3.3 ± 0.7
same,Kp at 1 h,"[3]; male, Sprague-Dawley, kidney, acetaminophen 100 mg/kg, read-out: Tissue partition coefficient (Kp), Kidney",5.1 ± 1.6
same,Kp at 1 h,"[3]; male, Sprague-Dawley, kidney, control, read-out: Tissue partition coefficient (Kp), Kidney",16.6 ± 12.4
same,Kp at 1 h,"[3]; male, Sprague-Dawley, liver, acetaminophen 100 mg/kg, read-out: Tissue partition coefficient (Kp), Liver",3 ± 0.8
same,Kp at 1 h,"[3]; male, Sprague-Dawley, liver, control, read-out: Tissue partition coefficient (Kp), Liver",6.5 ± 5
same,Kp at 1 h,"[3]; male, Sprague-Dawley, muscle, acetaminophen 100 mg/kg, read-out: Tissue partition coefficient (Kp), Muscle",0.9 ± 0.3
same,Kp at 1 h,"[3]; male, Sprague-Dawley, muscle, control, read-out: Tissue partition coefficient (Kp), Muscle",0.9 ± 0.2
same,dose excreted via the urine within 24 h,[4]; after administration of amifampridine,74.0–81.7%
same,elimination half-life,[4],~4 h
same,pharmacological activity,[5],pharmacologically inactive
CC(=O)Nc1ccc(O)cc1 [acetaminophen],IC50,[6],4.48 ± 0.742 mM
same,stronger inhibitory effect in rats compared to humans (IC50 ratio),[7],approximately 29 fold
same,inhibition mode,"[8]; Lineweaver–Burk plot, rat liver S9",mixed inhibition
same,α value,"[8]; rat liver S9, mixed inhibition model",3.48
same,αKi,"[8]; secondary plot (y-intercept), rat liver S9",238.8 ± 25.6 µM
same,decrease of metabolic activity of amifampridine,[9]; acetaminophen pre-incubated with rat liver S9,approximately 0.31 % per min
same,kinact,"[9]; pre-incubation 0-60 min, amifampridine 240 μM, rat liver S9",5.17e-05 s⁻¹
same,Cmax,"[1]; ip, 100 mg/kg, acetaminophen 100 mg/kg intraperitoneally, rats",54800 ng/mL and 362 µM
same,Ki,[10]; human liver cytosol from fast acetylators,2.14 mM
same,Ki,[10]; human liver cytosol from slow acetylators,0.712 mM
same,Cmax,[11],≤ 200 µM
